From the supplement of paper PMC11208160

experiment: recombinant UMI read abundance after kanamycin selection (control-corrected) (log10(CPM+1)); higher = more efficient recombination; extreme values may be limits of the assay; sequences stand for … in AGTGCAGAGAAAATCGGCCAGTTTTCTCTGCCTGCAGTCCGCATGCCGTGGGACCCCTTGGGTTCTAACCTGTTGCCTAGATTTATGCAGCGGACTGCCTTTCTCCCAAAGTGATAAACCGG…AGGTTGGTTTCACT; site = the 11-nt donor
Procedure, shortened: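 Counts of recombinant UMIs were reported as log10(CPM+1). Before that, they were converted to CPM, averaged over replicates and scaled using control-derived factors. They came from PCR across the donor–target junction after Escherichia coli carrying the pair library and target plasmid was plated on IPTG (0.07 mM) plus kanamycin, or unselected, in two replicates each.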
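Note: IS621 bridge recombinase in Escherichia coli cells against a fixed T5 target plasmid.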

“GACAAACCATGGACCGGTTTTCCCGGTAATCCGTATTTGGT (site GACTAACCTAC)” and “GACAAACCATGGACCGGTTTTCCCGGTAATCCGTATTTGGT (site GAGAAACCTAC)” are the same in “recombinant UMI read abundance (log10)” value: 0 for the first, 0 for the second.

“GACAAACCATGGACCGGTTTTCCCGGTAATCCGTATTTGGT (site GATAAACCTAC)” and “GACAAACCATGGACCGGTTTTCCCGGTAATCCGTATTTGGT (site GCCAAACCTAC)” are the same in “recombinant UMI read abundance (log10)” value: 0 for the first, 0 for the second.

“GACAAACCATGGACCGGTTTTCCCGGTAATCCGTATTTGGT (site GGCAAACCTAC)” and “GACAAACCATGGACCGGTTTTCCCGGTAATCCGTATTTGGT (site GTCAAACCTAC)” are the same in “recombinant UMI read abundance (log10)” value: 0 for the first, 0 for the second.

“GACAAACCATGGACCGGTTTTCCCGGTAATCCGTATTTGGT (site TACAAACCTAC)” and “GACAACCCATGGACCGGTTTTCCCGGTAATCCGTATTTGCT (site GACAACCCTAG)” are within 0.2 log units of each other in “recombinant UMI read abundance (log10)” value: 0 for the first, 0.00684 for the second.

“GACAACCCATGGACCGGTTTTCCCGGTAATCCGTATTTGGT (site GACAAACCTAC)” and “GACAACCCATGGACCGGTTTTCCCGGTAATCCGTATTTGGT (site GACAACCCTAC)” are the same in “recombinant UMI read abundance (log10)” value: 0 for the first, 0 for the second.

“GACAACCCATGGACCGGTTTTCCCGGTAATCCGTATTTGGT (site GACAAGCCTAC)” and “GACAACCCATGGACCGGTTTTCCCGGTAATCCGTATTTGGT (site GACAATCCTAC)” are within 0.2 log units of each other in “recombinant UMI read abundance (log10)” value: 0.00882 for the first, 0 for the second.

“GACAAGCCATGGACCGGTTTTCCCGGTAATCCGTATTTGGT (site GACAAACCTAC)” and “GACAAGCCATGGACCGGTTTTCCCGGTAATCCGTATTTGGT (site GACAACCCTAC)” are within 0.2 log units of each other in “recombinant UMI read abundance (log10)” value: 0 for the first, 0.00727 for the second.

“GACAAGCCATGGACCGGTTTTCCCGGTAATCCGTATTTGGT (site GACAAGCCTAC)” and “GACAAGCCATGGACCGGTTTTCCCGGTAATCCGTATTTGGT (site GACAATCCTAC)” are the same in “recombinant UMI read abundance (log10)” value: 0 for the first, 0 for the second.

Going from “GACAATTCATGGACCGGTTTTCCCGGTAATCCGTATTTGAC (site GACAATTCTGT)” to “GACACATCATGGACCGGTTTTCCCGGTAATCCGTATTTGGT (site GACACATCTAC)”, the “recombinant UMI read abundance (log10)” value rises from 0 to 2.25.

“GACATACCATGGACCGGTTTTCCCGGTAATCCGTATTTGGT (site GACAAACCTAC)” and “GACATACCATGGACCGGTTTTCCCGGTAATCCGTATTTGGT (site GACACACCTAC)” are within 0.2 log units of each other in “recombinant UMI read abundance (log10)” value: 0 for the first, 0.01 for the second.

“GACATACCATGGACCGGTTTTCCCGGTAATCCGTATTTGGT (site GACAGACCTAC)” and “GACATACCATGGACCGGTTTTCCCGGTAATCCGTATTTGGT (site GACATACCTAC)” are within 0.2 log units of each other in “recombinant UMI read abundance (log10)” value: 0 for the first, 0.0102 for the second.

“GACCCGCCATGGACCGGTTTTCCCGGTAATCCGTATTTGAG (site GACCCGCCTCT)” and “GACCCGCCATGGACCGGTTTTCCCGGTAATCCGTATTTGTG (site GACCCGCCTCA)” are within 0.2 log units of each other in “recombinant UMI read abundance (log10)” value: 0.0157 for the first, 0.0171 for the second.

First: GACCCGTCATGGACCGGTTTTCCCGGTAATCCGTATTTGTG (site GACCCGTCTCA)
Second: GACCGAGCATGGACCGGTTTTCCCGGTAATCCGTATTTGTA (site GACCGAGCTTA)
The “recombinant UMI read abundance (log10)” value of the first is higher: 1.63 for the first, 1.19 for the second.

First: GACCTAGCATGGACCGGTTTTCCCGGTAATCCGTATTTGAA (site GACCTAGCTTT)
Second: GACCTCACATGGACCGGTTTTCCCGGTAATCCGTATTTGAT (site GAACTCACTAT)
The “recombinant UMI read abundance (log10)” value of the first is higher: 0.349 for the first, 0.0127 for the second.

For “GACCTCACATGGACCGGTTTTCCCGGTAATCCGTATTTGAT (site GACCTCACTAT)”, the “recombinant UMI read abundance (log10)” value was 0.626.
